≈ marks a conversion by molar mass, not a printed value.
Experiments:
[1] = test system: Escherichia fergusonii (CU928158.2); assay: Antibacterial well diffusion; assay type: cell-based; conditions: 10 µL per well, mean ± SD
Text: (§1) (CP017183.1), Escherichia fergusonii (CU928158.2), and Pseudomonas aeruginosa (NR-117678.1) and Gram-positive Staphylococcus aureus (CP011526.1) and Bacillus licheniformis (KX785171.1) using well diffusion and broth microdilution techniques as described by Berghe and […] [16]. The bacterial strains were suspended in a nutrient broth for 24 hr, and the suspension then spread on Mueller-Hinton agar. […] Amikacin was used as the positive control.

[2] = test system: Klebsiella pneumonia (ATCC 700603); assay: Antibacterial well diffusion; assay type: cell-based; conditions: 10 µL per well, mean ± SD
Text: as §1

[3] = test system: Pseudomonas aeruginosa (ATCC 27853); assay: Antibacterial well diffusion; assay type: cell-based; conditions: 10 µL per well, mean ± SD
Text: as §1

Staphylococcus aureus [4] = assay: Antibacterial well diffusion; assay type: cell-based; conditions: 10 µL per well, mean ± SD
Text: as §1

[5] = test system: Bacillus cereus (ATCC 14579); assay: Antibacterial well diffusion; assay type: cell-based; conditions: 10 µL per well, mean ± SD
[6] = test system: Escherichia fergusonii (CU928158.2); assay: Antibacterial broth microdilution (MIC); assay type: cell-based; conditions: read-out: MIC, E. fergusonii
Text: as §1

[7] = test system: Klebsiella pneumonia (ATCC 700603); assay: Antibacterial broth microdilution (MIC); assay type: cell-based; conditions: Klebsiella pneumoniae, ATCC700603, read-out: MIC, K. pneumonia
Text: as §1

[8] = test system: Pseudomonas aeruginosa (ATCC 27853); assay: Antibacterial broth microdilution (MIC); assay type: cell-based; conditions: ATCC27853, read-out: MIC, P. aeruginosa
Text: as §1

Staphylococcus aureus [9] = assay: Antibacterial broth microdilution (MIC); assay type: cell-based; conditions: read-out: MIC, S. aureus
Text: as §1

[10] = test system: Bacillus cereus (ATCC 14579); assay: Antibacterial broth microdilution (MIC); assay type: cell-based; conditions: ATCC14579, read-out: MIC, B. cereus
PPARα = target: T1, PPARα (Homo sapiens, UniProt Q07869); assay: PPARα reporter gene assay (luciferase fold induction); assay type: cell-based; conditions: for PPAR alpha agonistic activity, fold induction: dual activation
T1 construct: expressed in transfected cells
T1 sequence (Q07869 1-468): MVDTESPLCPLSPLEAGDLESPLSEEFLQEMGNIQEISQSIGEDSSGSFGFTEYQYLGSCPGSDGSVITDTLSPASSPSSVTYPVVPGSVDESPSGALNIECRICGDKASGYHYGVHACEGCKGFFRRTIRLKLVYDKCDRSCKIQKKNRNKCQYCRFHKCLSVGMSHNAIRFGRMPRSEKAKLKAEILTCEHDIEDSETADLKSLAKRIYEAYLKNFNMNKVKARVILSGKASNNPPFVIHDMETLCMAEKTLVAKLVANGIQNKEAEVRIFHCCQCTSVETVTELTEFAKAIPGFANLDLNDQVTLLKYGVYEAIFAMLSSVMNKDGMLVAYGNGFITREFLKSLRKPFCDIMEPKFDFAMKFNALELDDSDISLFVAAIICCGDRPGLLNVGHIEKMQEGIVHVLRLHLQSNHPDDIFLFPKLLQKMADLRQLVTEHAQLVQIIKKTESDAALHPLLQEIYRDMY
Experimental: (§2) A reporter gene assay was carried out as described previously. Briefly, upon confluency, the different concentrations of the test samples were exposed to transfected cells for 24 hrs. Vehicle control was taken into consideration when the fold induction in luciferase activity was calculated. Both rosiglitazone and ciprofibrate were used as control drugs for PPARα and PPARγ, respectively.
(§3) Fold induction in the PPAR activity was detected in response to the methanol fraction and pure compounds according to untreated controls. A fold induction of 1.5 means a 50% increase in PPAR activity. […] Several studies have been carried out with the aim of exploring the potential of selective PPARγ modulators. The dual activator effect of P2 is in agreement with previous literature.

PPARγ = target: T2, PPARγ (Homo sapiens, UniProt P37231); assay: PPARγ reporter gene assay (luciferase fold induction); assay type: cell-based; conditions: for PPAR gamma agonistic activity, fold induction: dual activation
T2 construct: expressed in transfected cells
T2 sequence (P37231 1-505): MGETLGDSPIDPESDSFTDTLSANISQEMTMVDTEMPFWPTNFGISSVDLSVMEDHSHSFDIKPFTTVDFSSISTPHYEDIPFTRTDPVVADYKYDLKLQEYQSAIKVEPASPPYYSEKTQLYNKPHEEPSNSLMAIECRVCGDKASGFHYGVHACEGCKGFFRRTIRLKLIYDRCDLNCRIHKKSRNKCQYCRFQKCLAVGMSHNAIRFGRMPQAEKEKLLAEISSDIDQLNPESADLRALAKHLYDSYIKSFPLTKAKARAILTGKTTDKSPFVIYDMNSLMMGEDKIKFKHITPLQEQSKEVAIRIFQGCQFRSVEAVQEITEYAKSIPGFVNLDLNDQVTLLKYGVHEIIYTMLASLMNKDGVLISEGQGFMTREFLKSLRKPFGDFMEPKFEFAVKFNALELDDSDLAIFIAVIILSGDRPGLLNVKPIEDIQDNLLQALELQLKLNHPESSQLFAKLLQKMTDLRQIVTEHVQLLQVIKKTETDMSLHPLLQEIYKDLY
Experimental: as §2, §3

HepG2 cells = assay: Cellular antioxidant assay (decrease in oxidative stress, ABAP); assay type: cell-based, human
Experimental: Human hepatoma cell line (HepG2) was the cell line of choice in this study according to the previously described method. At a density of 60,000 cells/well, the HepG2 cells were seeded in a 96-well plate and incubated for 24 h for confluency. PBS was used for washing the cells, followed by samples treatment. The SpectraMax plate reader was used for reading the plates after addition of 600 μM of ABAP. The area under the curve (AUC) of fluorescence units and time were two parameters used for indication of the percent decrease in oxidative stress. Percent decrease in oxidative stress = 100 − ((AUC sample/AUC control) × 100). Quercetin was used as a positive control.

iNOS = iNOS inhibition, nitrite level in LPS-treated macrophages (Griess); assay type: cell-based, mouse; conditions: for IC50: Mus musculus
Experimental: Mouse macrophage (RAW264.7) cells were seeded in the wells of 96-well plates followed by 24 hrs for confluency according to the method described previously. The test samples were treated with LPS (5 μg/mL) and followed by 24-hour incubation as well. The nitrite level in cell supernatant was measured by Griess reagent. The dose response curves gave indication for IC50 values. Parthenolide was used as positive control.

[11] = test system: four cancerous cell lines as well as the two normal cell lines; assay: Cytotoxicity, whole panel; assay type: cell-based; conditions: all cell lines
Experimental: (§4) Four human cancer cell lines (SK-OV-3, SK-MEL, BT-549 and KB) and two noncancerous kidney cell lines (VERO and LLC-PK1) were measured in the in vitro cytotoxic study. Test samples were added on the cell lines with variable concentrations, followed by 48 h incubation. According to the Borenfreund method, the cell viability was determined at the end of incubation, using doxorubicin as a positive control.

LLC-PK11 = assay: Cytotoxicity assay (Borenfreund method, 48 h); assay type: cell-based; conditions: NA = no cytotoxic activity upto 100 µg/mL, read-out: Noncancer cells IC50, LLC-PK11
Experimental: as §4

NF-κB = NF-κB luciferase reporter gene assay in PMA-treated SW1353 cells; assay type: cell-based; conditions: Homo sapiens; SW1353, PMA 70 ng/mL 8 h; NA = no activity up to 100 µg/mL; read-out: NF-kB inhibition (IC50)
Experimental: According to the method described earlier, the 96-well plates with density of 1.25 × 10^5 cells per well were seeded with human chondrosarcoma cells (SW1353) transfected with NF-κB luciferase plasmid construct. After incubation for 24 h, cells were treated with the test samples for half an hour followed by PMA (70 ng/mL) for 8 h. Luciferase assay kit (Promega, Madison, WI, USA) was used for determination of luciferase activity, and parthenolide was used as the positive control in this test.

[12] = at 250 µg/mL for pure compounds
[13] = RAW264.7, LPS 5 µg/mL, 24 h, NA = no activity up to 100 µg/mL

## NCC[C@H](O)C(=O)N[C@@H]1C[C@H](N)[C@@H](O[C@H]2O[C@H](CN)[C@@H](O)[C@H](O)[C@H]2O)[C@H](O)[C@H]1O[C@H]1O[C@H](CO)[C@@H](O)[C@H](N)[C@H]1O [AMK, Amikacin, reference compound]
[1]
  ZOI diameter, E. fergusonii: 24 ± 1.5 mm
[2]
  ZOI diameter, K. pneumonia: 25 ± 0.8 mm
[3]
  ZOI diameter, P. aeruginosa: 18 ± 1.3 mm
Staphylococcus aureus [4]
  ZOI diameter, S. aureus: 24 ± 1 mm
[5]
  ZOI diameter, B. cereus: 20 ± 0.9 mm
[6]
  MIC: 4.5 µg/mL (≈ 7.68 µM)
[7]
  MIC: 5 µg/mL (≈ 8.54 µM)
[8]
  MIC: 8 µg/mL (≈ 13.7 µM)
Staphylococcus aureus [9]
  MIC: 6.2 µg/mL (≈ 10.6 µM)
[10]
  MIC: 7.3 µg/mL (≈ 12.5 µM)

## O=C(Oc1cc(O)cc2c1C[C@@H](O)[C@H](c1ccc(O)c(O)c1)O2)c1cc(O)c(O)c(O)c1 [Compound P3, 2S,3R-3,3′,4′,5,7-pentahydroxyflavane-5-O-gallate]
PPARα
  PPAR alpha agonistic activity, fold induction: no PPAR agonistic activity
PPARγ
  PPAR gamma agonistic activity, fold induction: no PPAR agonistic activity
HepG2 cells; [12]
  % decrease in oxidative stress: 57%
iNOS
  iNOS inhibition (in words): did not show any
[11]
  Cytotoxicity (in words): not cytotoxic

## O=c1c(O)c(-c2ccc(O)c(O)c2)oc2cc(O)cc(O)c12 [Compound P1, quercetin]
PPARα
  PPAR alpha agonistic activity, fold induction: no PPAR agonistic activity
PPARγ
  PPAR gamma agonistic activity, fold induction: no PPAR agonistic activity
HepG2 cells; [12]
  % decrease in oxidative stress: 52%
HepG2 cells; positive control at 50 µM
  % decrease in oxidative stress: 75%
iNOS; RAW264.7, 24 h, RAW264.7, LPS 5 µg/mL, 24 h, NA = no activity up to 100 µg/mL
  IC50: 25 µg/mL (≈ 82.7 µM)
iNOS; [13]
  iNOS inhibition (IC50): 48 µg/mL
LLC-PK11
  IC50: 55 µg/mL (≈ 182 µM)
[11]
  Cytotoxicity (in words): not cytotoxic
[1]
  ZOI diameter, E. fergusonii: 16.3 ± 0.57 mm
[2]
  ZOI diameter, K. pneumonia: 21.3 ± 1.15 mm
[3]
  ZOI diameter, P. aeruginosa: 21 ± 1 mm
Staphylococcus aureus [4]
  ZOI diameter, S. aureus: 18 ± 1 mm
[5]
  ZOI diameter, B. cereus: 19.3 ± 1.15 mm
[6]
  MIC: 9.3 µg/mL (≈ 30.8 µM)
[7]
  MIC: 6.2 µg/mL (≈ 20.5 µM)
[8]
  MIC: 6.6 µg/mL (≈ 21.8 µM)
Staphylococcus aureus [9]
  MIC: 8.3 µg/mL (≈ 27.5 µM)
[10]
  MIC: 8.4 µg/mL (≈ 27.8 µM)

## CN(CCOc1ccc(CC2SC(=O)NC2=O)cc1)c1ccccn1 (stereo not shown) [Rosiglitazone, reference compound]
PPARγ; control drug at 10 µM, read-out: Fold induction PPAR gamma
  fold induction at 10 µM: 3.7

## C=C1C(=O)O[C@H]2[C@H]1CC/C(C)=C/CC[C@@]1(C)O[C@@H]21 [Parthenolide, reference compound]
iNOS; [13]
  IC50: 0.35 ± 0.22 µg/mL (≈ 1.41 µM)
NF-κB
  IC50: 0.5 ± 0.21 µg/mL (≈ 2.01 µM)

## CC(C)(Oc1ccc(C2CC2(Cl)Cl)cc1)C(=O)O (stereo not shown) [Ciprofibrate, reference compound]
PPARα; control drug at 10 µM, read-out: Fold induction PPAR alpha
  fold induction at 10 µM: 2.2

## Oc1cc(O)c2c(c1)O[C@@H](c1ccc(O)c(O)c1)[C@H](O)C2 [Compound P2, (-)-catechin]
PPARα; 12.5 µg/mL, 24 hrs, NA = not active, read-out: Fold induction PPAR alpha
  fold induction at 12.5 µg/mL: 1.19
PPARα; 25 µg/mL, 24 hrs, NA = not active, read-out: Fold induction PPAR alpha
  fold induction at 25 µg/mL: 1.31
PPARα; 50 µg/mL, 24 hrs, NA = not active, read-out: Fold induction PPAR alpha
  fold induction at 50 µg/mL: 1.47
PPARα
  PPAR alpha agonistic activity, fold induction: ≥ 1.5 fold
PPARγ; 12.5 µg/mL, 24 hrs, NA = not active, read-out: Fold induction PPAR gamma
  fold induction at 12.5 µg/mL: 1.19
PPARγ; 25 µg/mL, 24 hrs, NA = not active, read-out: Fold induction PPAR gamma
  fold induction at 25 µg/mL: 1.55
PPARγ; 50 µg/mL, 24 hrs, NA = not active, read-out: Fold induction PPAR gamma
  fold induction at 50 µg/mL: 1.53
PPARγ
  PPAR gamma agonistic activity, fold induction: ≥ 1.5 fold
HepG2 cells; [12]
  % decrease in oxidative stress: 39%
iNOS
  iNOS inhibition (in words): showed iNOS inhibition
iNOS; [13]
  IC50: > 50 µg/mL
LLC-PK11
  IC50: 16 µg/mL (≈ 55.1 µM)
[11]
  Cytotoxicity (in words): not cytotoxic
[1]
  ZOI diameter, E. fergusonii: 8 ± 1 mm
[6]
  MIC: 11 µg/mL (≈ 37.9 µM)

Reference: PMC6444227, “Pharmacological Evaluation of Secondary Metabolites and Their Simultaneous Determination in the Arabian Medicinal Plant Plicosepalus curviflorus Using HPTLC Validated Method” (Journal of Analytical Methods in Chemistry, 2019)
